Results published in patent US9567336B2, “Conjugated TLR7 and/or TLR8 and TLR2 agonists” (CAYLA, priority 2012, dated 2017).

Biological target: T1, human TLR7 (Homo sapiens, UniProt Q9NYK1)
T1 construct: host or cells: HEK293 (HEK-Blue hTLR7)
T1 sequence (Q9NYK1 27-1049): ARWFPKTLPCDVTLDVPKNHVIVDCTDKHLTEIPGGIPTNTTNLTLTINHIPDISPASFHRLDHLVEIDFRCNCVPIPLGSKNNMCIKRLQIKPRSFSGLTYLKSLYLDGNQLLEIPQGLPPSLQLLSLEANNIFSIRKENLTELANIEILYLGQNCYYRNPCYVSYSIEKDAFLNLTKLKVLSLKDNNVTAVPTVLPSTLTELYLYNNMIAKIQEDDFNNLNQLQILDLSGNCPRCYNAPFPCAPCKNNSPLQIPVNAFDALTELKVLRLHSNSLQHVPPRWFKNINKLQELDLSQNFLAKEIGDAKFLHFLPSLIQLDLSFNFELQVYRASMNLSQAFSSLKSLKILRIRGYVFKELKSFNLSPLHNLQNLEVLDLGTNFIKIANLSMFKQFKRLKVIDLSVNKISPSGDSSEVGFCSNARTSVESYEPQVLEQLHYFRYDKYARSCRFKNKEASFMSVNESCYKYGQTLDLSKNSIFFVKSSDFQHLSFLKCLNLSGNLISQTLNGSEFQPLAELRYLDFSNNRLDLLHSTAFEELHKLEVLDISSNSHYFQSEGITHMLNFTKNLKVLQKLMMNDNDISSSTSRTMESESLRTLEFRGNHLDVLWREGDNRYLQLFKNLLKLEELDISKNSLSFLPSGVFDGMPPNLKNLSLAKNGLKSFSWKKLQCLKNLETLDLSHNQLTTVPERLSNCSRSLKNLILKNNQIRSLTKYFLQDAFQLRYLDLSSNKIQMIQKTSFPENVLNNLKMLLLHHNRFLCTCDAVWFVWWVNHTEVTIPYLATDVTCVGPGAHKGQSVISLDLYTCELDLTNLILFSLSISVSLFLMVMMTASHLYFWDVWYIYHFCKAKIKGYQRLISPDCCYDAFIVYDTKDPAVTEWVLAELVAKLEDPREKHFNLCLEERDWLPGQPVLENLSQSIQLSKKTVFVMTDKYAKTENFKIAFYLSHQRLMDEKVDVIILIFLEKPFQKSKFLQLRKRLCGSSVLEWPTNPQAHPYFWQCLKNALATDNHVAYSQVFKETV
Experiment: HEK-Blue hTLR7 NF-κB/AP-1 SEAP reporter cell assay
Type: cell-based
Conditions: HEK-Blue hTLR7 reporter cells, 10 μg/mL to 10 pg/ml, 24 hours, OD at 655 nm; FIGS. 1A, 1B
Description: Some conjugated compounds of the invention were tested for their ability to activate TLR7 and TLR2 receptor signaling. Cell-based assays were carried out using TLR7 and TLR2 reporter cell lines (InvivoGen). The reporter cell lines are engineered HEK293 cells, a human embryonic kidney cell line (ATCC, CRL-1573) that stably express either murine TLR7 (HEK-Blue™ mTLR7) or human TLR7 (HEK-Blue™ hTLR7) or murine TLR2 (HEK-Blue™ mTLR2) or human TLR2 (HEK-Blue™ hTLR2) with an NF-κB-inducible secreted embryonic alkaline phosphatase (SEAP) as the reporter gene. The SEAP reporter gene is placed under the control of the NF-κB and AP-inducible promoter. Stimulation with the corresponding TLR ligand activates NF-κB and AP-1, which induces the production of SEAP. Detection of SEAP is measured following culturing cells in HEK-Blue™ Detection media (InvivoGen). HEK-Blue™ Detection contains a SEAP substrate, which upon hydrolysis by SEAP produces a colorimetric change allowing for detection of SEAP as the protein is secreted. […] These assays were carried out using RAW-Blue™ Cells (InvivoGen), derived from RAW 264.7 mouse leukemic monocytic macrophage cell line (ATCC, CRL 2278) stably overexpressing a NF-κB/AP-1 inducible SEAP reporter constructs.
To perform the assay, cells were seeded on 96 well microliter plates at 50,000 or 100,000 cells per well for HEK-Blue™ Cells and RAW-Blue™ Cells respectively, and cultured at 37° C. in the presence of the conjugated compounds. The conjugated compounds were prepared as follows: First, stock solutions of the small molecule conjugated compounds of the invention were prepared in ethanol or water to a concentration of 10 mg/ml. A working dilution of the conjugated TLR7-TLR2 small molecules was made up in water and added to cells at a final range of concentrations from 10 μg/mL to 10 pg/ml. The working dilutions of the conjugated TLR7-TLR2 small molecules as the stated concentrations were directly added to the reporter cell lines and incubated at 37° C. for 24 hours. After 24 hours of incubation, the effect on reporter gene activity was determined by reading the OD at 655 nm using iMark™ Microplate Reader (BIO-RAD).
The conjugated compounds were tested alone for their ability to specifically activate TLR7 and TLR2, alongside the known TLR7 activators R848 or CL264 (InvivoGen) and the TLR2 agonists Pam2CSK4 or Pam3CSK4 (InvivoGen). The specificity of the TLR activity was determined by use of reporter cell lines to the other TLRs (data not shown). […] The molecules show a tendency to activate mouse TLR7 with greater sensitivity than human TLR7. […] Furthermore, dose-dependent responses of the conjugated compounds indicate significant TLR activities of TLR7 and TLR2 compared to the corresponding controls.

## CCCCCCCCCCCCCCCC(=O)OCC(CSC[C@H](N)C(=O)Nc1ccc(Cn2c(O)nc3c(N)nc(NCCCC)nc32)cc1)OC(=O)CCCCCCCCCCCCCCC (mixture of isomers) [CL401, (R)-3-(2-amino-3-(4-((6-amino-2-(butylamino)-8-hydroxy-9H-purin-9-yl)methyl)phenylamino)-3-oxopropylthio)propane-1,2-diyl dipalmitate]
  ability to activate TLR7 receptors (human TLR7): activate TLR7 receptors
